Consider 33 molecules from patent US7704995B2 (Exelixis, Inc., priority 2003, dated 2010).

The IC50 is the midpoint of a concentration-inhibition curve.

In the assay the target is T1, Chk1 (Homo sapiens, UniProt O14757).
T1 construct: purchased Upstate Biotechnology
T1 sequence (O14757 1-476): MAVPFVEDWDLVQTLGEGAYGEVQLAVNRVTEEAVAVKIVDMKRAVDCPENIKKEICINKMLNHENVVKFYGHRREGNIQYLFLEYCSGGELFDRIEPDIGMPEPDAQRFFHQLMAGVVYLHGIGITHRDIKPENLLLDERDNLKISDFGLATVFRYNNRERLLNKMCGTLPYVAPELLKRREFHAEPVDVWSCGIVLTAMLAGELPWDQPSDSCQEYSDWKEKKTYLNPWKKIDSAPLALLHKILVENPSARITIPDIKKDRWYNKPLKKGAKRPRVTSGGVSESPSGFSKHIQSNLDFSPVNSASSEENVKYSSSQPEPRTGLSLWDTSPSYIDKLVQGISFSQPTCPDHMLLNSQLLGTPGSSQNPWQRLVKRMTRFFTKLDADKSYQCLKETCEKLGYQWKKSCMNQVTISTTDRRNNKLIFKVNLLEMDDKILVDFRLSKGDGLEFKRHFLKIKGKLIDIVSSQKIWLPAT
Kind of assay: Chk1 kinase assay: incorporation of γ-33P ATP into immobilized myelin basic protein. Type of assay: biochemical. The settings on record: read-out: Chk1 IC50. In short, it runs like this: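 Enzyme activity is measured as γ-33P transfer from ATP onto immobilized MBP over 1 h at room temperature, with Chk1 at 10 nM/10 μM unlabeled ATP and Chk2 at 20 nM/30 μM unlabeled ATP. Compounds are tested in 1% DMSO.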
Consider `CNC(=O)c1nc(-c2cccc(OCCN3CCOCC3)c2)cnc1N` [Example 185, 3-amino-N-methyl-6-{3-[(2-morpholin-4-ylethyl)oxy]phenyl}pyrazine-2-carboxamide], for which the IC50 was in the range of 1000 to 10000 nM. The value for `CCCN(CCOc1cccc(-c2cnc(N)c(C(=O)NC)n2)c1)CC1CC1` [Example 186, 3-amino-6-[3-({2-[(cyclopropylmethyl)(propyl)amino]ethyl}oxy)phenyl]-N-methylpyrazine-2-carboxamide] was 50 to 1000 nM; that for `CNC(=O)c1nc(-c2cccc(OCCN3CCC(Cc4ccccc4)CC3)c2)cnc1N` [Example 187, 3-amino-N-methyl-6-[3-({2-[4-(phenylmethyl)piperidin-1-yl]ethyl}oxy)phenyl]pyrazine-2-carboxamide] was 50 to 1000 nM.

For the molecule `CNC(=O)c1nc(-c2cccc(OCCN3CCCCC3)c2)cnc1N` [Example 188, 3-amino-N-methyl-6-{3-[(2-piperidin-1-ylethyl)oxy]phenyl}pyrazine-2-carboxamide], the IC50 is 50 to 1000 nM. The result for `CNC(=O)c1nc(-c2cccc(C(=O)NCc3cccc(Oc4ccccc4)c3)c2)cnc1N` [Example 189, 3-amino-N-methyl-6-{3-[({[3-(phenyloxy)phenyl]methyl}amino)carbonyl]phenyl}pyrazine-2-carboxamide] reads 50 to 1000 nM. The result for `CCN1CCN(CCOc2cccc(-c3cnc(N)c(C(=O)NC)n3)c2)CC1` [Example 190, 3-amino-6-(3-{[2-(4-ethylpiperazin-1-yl)ethyl]oxy}phenyl)-N-methylpyrazine-2-carboxamide] reads 50 to 1000 nM; that for `CNC(=O)c1nc(-c2cccc(OCCN3CCCC3)c2)cnc1N` [Example 191, 3-amino-N-methyl-6-{3-[(2-pyrrolidin-1-ylethyl)oxy]phenyl}pyrazine-2-carboxamide], 50 to 1000 nM; that for `CNC(=O)c1nc(-c2cccc(OCCN3CCN(C)CC3)c2)cnc1N` [Example 192, 3-amino-N-methyl-6-(3-{[2-(4-methylpiperazin-1-yl)ethyl]oxy}phenyl)pyrazine-2-carboxamide], 50 to 1000 nM.

Turning to `CNC(=O)c1nc(-c2cccc(OCCN3CCN(CCO)CC3)c2)cnc1N` [Example 193, 3-amino-6-[3-({2-[4-(2-hydroxyethyl)piperazin-1-yl]ethyl}oxy)phenyl]-N-methylpyrazine-2-carboxamide], the IC50 lay within 50 to 1000 nM. Regarding `CNC(=O)c1nc(-c2cccc(OCCN3CCc4ccccc4C3)c2)cnc1N` [Example 194, 3-amino-6-(3-{[2-(3,4-dihydroisoquinolin-2(1H)-yl)ethyl]oxy}phenyl)-N-methylpyrazine-2-carboxamide], the IC50 lay in the range of 50 to 1000 nM.

With `CCOC(=O)N1CCN(CCOc2cccc(-c3cnc(N)c(C(=O)NC)n3)c2)CC1` [Example 195, ethyl 4-{2-[(3-{5-amino-6-[(methylamino)carbonyl]pyrazin-2-yl}phenyl)oxy]ethyl}piperazine-1-carboxylate], the IC50 was 1000 to 10000 nM. Take `CNC(=O)c1nc(-c2cccc(C(=O)N[C@H]3CCN(Cc4ccccc4)C3)c2)cnc1N` [Example 196, 3-amino-N-methyl-6-[3-({[(3S)-1-(phenylmethyl)pyrrolidin-3-yl]amino}carbonyl)phenyl]pyrazine-2-carboxamide]: the IC50 was in the range of 50 to 1000 nM.

Take `CNC(=O)c1nc(-c2cccc(C(=O)N[C@@H]3CCN(Cc4ccccc4)C3)c2)cnc1N` [Example 197, 3-amino-N-methyl-6-[3-({[(3R)-1-(phenylmethyl)pyrrolidin-3-yl]amino}carbonyl)phenyl]pyrazine-2-carboxamide]: the IC50 lay in the range of 50 to 1000 nM. As to `CNC(=O)c1nc(-c2cccc(C(=O)NCCOc3ccccc3)c2)cnc1N` [Example 198, 3-amino-N-methyl-6-[3-({[2-(phenyloxy)ethyl]amino}carbonyl)phenyl]pyrazine-2-carboxamide], the half-inhibitory concentration (IC50) lay in the range of 50 to 1000 nM. The result for `CNC(=O)c1nc(-c2cccc(C(=O)NCCN3CCN(Cc4ccccc4)CC3)c2)cnc1N` [Example 199, 3-amino-N-methyl-6-{3-[({2-[4-(phenylmethyl)piperazin-1-yl]ethyl}amino)carbonyl]phenyl}pyrazine-2-carboxamide] reads 50 to 1000 nM. The result for `CNC(=O)c1nc(-c2cccc(C(=O)NCC3CCN(Cc4ccccc4)CC3)c2)cnc1N` [Example 200, 3-amino-N-methyl-6-{3-[({[1-(phenylmethyl)piperidin-4-yl]methyl}amino)carbonyl]phenyl}pyrazine-2-carboxamide] reads ≥ 10000 nM. Take `CNC(=O)c1nc(-c2cccc(C(=O)NCc3ccoc3)c2)cnc1N` [Example 201, 3-amino-6-(3-{[(furan-3-ylmethyl)amino]carbonyl}phenyl)-N-methylpyrazine-2-carboxamide]: the IC50 lay within 50 to 1000 nM.

For `CNC(=O)c1nc(-c2cccc(C(=O)NCC3COc4ccccc4O3)c2)cnc1N` (stereo not drawn) [Example 202, 3-amino-6-(3-{[(2,3-dihydro-1,4-benzodioxin-2-ylmethyl)amino]carbonyl}phenyl)-N-methylpyrazine-2-carboxamide], the IC50 is 50 to 1000 nM.

Consider `CNC(=O)c1nc(-c2cccc(C(=O)NCc3ccco3)c2)cnc1N` [Example 203, 3-amino-6-(3-{[(furan-2-ylmethyl)amino]carbonyl}phenyl)-N-methylpyrazine-2-carboxamide], for which the IC50 fell in the range of 50 to 1000 nM.

Regarding `CNC(=O)c1nc(-c2cccc(C(=O)NCC3CN(Cc4ccccc4)CCO3)c2)cnc1N` (stereo not drawn) [Example 204, 3-amino-N-methyl-6-{3-[({[4-(phenylmethyl)morpholin-2-yl]methyl}amino)carbonyl]phenyl}pyrazine-2-carboxamide], the IC50 lay within 50 to 1000 nM. The value for `CNC(=O)c1nc(-c2cccc(C(=O)NCc3ccc4c(c3)OCCO4)c2)cnc1N` [Example 205, 3-amino-6-(3-{[(2,3-dihydro-1,4-benzodioxin-6-ylmethyl)amino]carbonyl}phenyl)-N-methylpyrazine-2-carboxamide] was < 50 nM; that for `CNC(=O)c1nc(-c2cccc(C(=O)NCc3ccc4c(c3)CCO4)c2)cnc1N` [Example 207, 3-amino-6-(3-{[(2,3-dihydro-1-benzofuran-5-ylmethyl)amino]carbonyl}phenyl)-N-methylpyrazine-2-carboxamide] was 50 to 1000 nM; that for `CNC(=O)c1nc(-c2cccc(C(=O)NCc3cc(F)cc4c3OCOC4)c2)cnc1N` [Example 208, 3-amino-6-[3-({[(6-fluoro-4H-1,3-benzodioxin-8-yl)methyl]amino}carbonyl)phenyl]-N-methylpyrazine-2-carboxamide] was 50 to 1000 nM. Take `CNC(=O)c1nc(-c2cccc(NC(=O)Cc3ccc(Cl)cc3Cl)c2)cnc1N` [Example 209, 3-amino-6-(3-{[(2,4-dichlorophenyl)acetyl]amino}phenyl)-N-methylpyrazine-2-carboxamide]: the IC50 was < 50 nM.

Regarding `CNC(=O)c1nc(-c2cccc(NC(=O)Cc3ccc(Cl)c(Cl)c3)c2)cnc1N` [Example 210, 3-amino-6-(3-{[(3,4-dichlorophenyl)acetyl]amino}phenyl)-N-methylpyrazine-2-carboxamide], the IC50 was 50 to 1000 nM. On to `CNC(=O)c1nc(-c2cccc(NC(=O)Cc3ccc(C(F)(F)F)cc3)c2)cnc1N` [Example 211, 3-amino-N-methyl-6-[3-({[4-(trifluoromethyl)phenyl]acetyl}amino)phenyl]pyrazine-2-carboxamide], for which the IC50 lay within 50 to 1000 nM.

In the case of `CNC(=O)c1nc(-c2cccc(C(=O)NCc3cc(C)cc(C)c3)c2)cnc1N` [Example 212, 3-amino-6-[3-({[(3,5-dimethylphenyl)methyl]amino}carbonyl)phenyl]-N-methylpyrazine-2-carboxamide], the IC50 lay within 50 to 1000 nM. The value for `CNC(=O)c1nc(-c2cccc(C(=O)NCc3cc(Cl)ccc3C)c2)cnc1N` [Example 213, 3-amino-6-[3-({[(5-chloro-2-methylphenyl)methyl]amino}carbonyl)phenyl]-N-methylpyrazine-2-carboxamide] was 50 to 1000 nM; that for `CNC(=O)c1nc(-c2cccc(C(=O)NCc3ccc(C)cc3C)c2)cnc1N` [Example 214, 3-amino-6-[3-({[(2,4-dimethylphenyl)methyl]amino}carbonyl)phenyl]-N-methylpyrazine-2-carboxamide] was 50 to 1000 nM; that for `CNC(=O)c1nc(-c2cccc(C(=O)NCc3cccc(F)c3F)c2)cnc1N` [Example 215, 3-amino-6-[3-({[(2,3-difluorophenyl)methyl]amino}carbonyl)phenyl]-N-methylpyrazine-2-carboxamide] was 1000 to 10000 nM.

Consider `CNC(=O)c1nc(-c2cccc(C(=O)NCc3ccc(SC)cc3)c2)cnc1N` [Example 216, 3-amino-N-methyl-6-{3-[({[4-(methylthio)phenyl]methyl}amino)carbonyl]phenyl}pyrazine-2-carboxamide], for which the IC50 was < 50 nM. On to `CNC(=O)c1nc(-c2cccc(C(=O)NCC(C)C)c2)cnc1N` [Example 217, 3-amino-N-methyl-6-(3-{[(2-methylpropyl)amino]carbonyl}phenyl)pyrazine-2-carboxamide], for which the IC50 is 1000 to 10000 nM. The result for `CNC(=O)c1nc(-c2cccc(C(=O)NCc3cccc(OC(F)(F)F)c3)c2)cnc1N` [Example 218, 3-amino-N-methyl-6-(3-{[({3-[(trifluoromethyl)oxy]phenyl}methyl)amino]carbonyl}phenyl)pyrazine-2-carboxamide] reads 1000 to 10000 nM.
